The values that follow come from US20240350511A1, “TREATMENT OF COVID-19” (priority 2021, published 2024).

One data set can be described thus: clinical. Conditions: both, human, in vivo, inhaled or intranasal, 1.13 mg.
For data set [1] the following is noted: rats, bazedoxifene acetate in SBECD.
The conditions of data set [2]: healthy volunteers, inhalation of BAZE-X1 1.13 mg.
Data set [3] is described as follows: Dissolved fraction in gamma-cyclodextrin solution, filtered vs unfiltered absorbance at 300 nm. Conditions: for bazedoxifene acetate dissolved: sonicated at 40° C. for 6 hours. The data set is classed as physicochemical. As for the experimental part: 1.2 mL of a 40 mg/mL solution of GCD in distilled water was added into the microtube. The solution was sonicated at 40° C. for 6 hours. […] The concentration of GCD remained the same in all solutions, specifically 40 mg/mL.
Aliquots of the solutions were filtered through a 0.22 μm disc filter.
1.5 mL of a 40 mg/mL solution of gamma-cyclodextrin in saline was added into the microtube. The solution was sonicated at 40° C. for 6 hours. […] The concentration of gamma-cyclodextrin remained the same in all solutions, specifically 40 mg/mL.
1.2 mL of a 40 mg/mL solution of GCD in phosphate-buffered saline was added into the microtube. The solution was sonicated at 40° C. for 6 hours. […] The concentration of GCD remained the same in all solutions, specifically. 40 mg/ml.
The resulting mixture was ground for 20 minutes at a set grinding speed of 1000 rpm and a grinding temperature of 37° C.
20 mg of the ground mixture was weighed into a microtube and combined with 0.5 mL distilled water. The sample was then sonicated for 5 minutes at 45° C.
An aliquot of the sonicated solution was filtered through a 0.22 μm disc filter.

Data set [4] can be described thus: Aggregation study: UV-Vis spectra before and after 0.22 μm filtration. The data set is classed as physicochemical. Conditions: DMSO stock diluted with saline, 4 hours at room temperature, 0.22 μm disc filter. As for the experimental part:
The drug concentration was […]. The sample was left for 4 hours at room temperature. UV-visible absorbance spectra of the solution before and after filtration (employing a 0.22 μm disc filter) were measured.
The formulations were placed in an ultrasonic bath at elevated temperature (40° C.) for 6 hours. After cooling to room temperature, UV-Vis spectra were measured for unfiltered solutions as well as for the solutions after filtration using a 0.22 μm disc filter.

Where two headings read alike, the source gives them in different places.

What is called half-life is the time in which the quantity being followed falls by half. Low readings indicate fast loss, high ones slow loss. Take `Cc1c(-c2ccc(O)cc2)n(Cc2ccc(OCCN3CCCCCC3)cc2)c2ccc(O)cc12` [bazedoxifene]: the half-life in the data set “clinical” was 21 h. The “pathological lesions in the lungs and trachea” value in data set [1] (single intranasal 0.5 mg/kg) and in data set [1] (single intravenous 0.5 mg/kg) was “did not cause pathological lesions” throughout. Further, in data set [2], the “plasma levels (pg/mL) and AUC values (h·pg/mL)” value is “very low, in majority near the limit of quantitation”. The “time to maximum plasma concentration” value in data set [2] (first measurement) came to 10 min. Also, the starting bazedoxifene dissolved in data set [3] (mixture ground with GCD (50 mg:250 mg), 20 mg in 0.5 mL distilled water, sonicated 5 minutes at 45° C.) was 99%.

Turning to `Cc1c(-c2ccc(O)cc2)n(Cc2ccc(OCCN3CCCCCC3)cc2)c2ccc(O)cc12` [bazedoxifene acetate], the bazedoxifene acetate dissolved amounted to 97% in data set [3] (40 mg/mL GCD in distilled water), 95% in data set [3] (40 mg/mL GCD in phosphate-buffered saline) and 92% in data set [3] (40 mg/mL gamma-cyclodextrin in saline). For the same compound, the “absorbance features of the drug after filtration (aggregation)” value in data set [4] was “sharp decrease in absorbance features”.
